Measurements published in BigSolDB 2.1.

Cc1c(C(=O)/C=C/c2ccccc2)[n+](=O)c2ccccc2n1[O-]
solubility (mole fraction)
Details | 283.15 K | 288.15 K | 293.15 K | 298.15 K | 303.15 K | 308.15 K | 313.15 K | 318.15 K | 323.15 K | 328.15 K
in DMF | 0.00549 | 0.00639 | 0.00748 | 0.00856 | 0.00978 | 0.0111 | 0.0127 | 0.0145 | 0.0163 | 0.0187
in DMSO | – | – | 0.00722 | 0.00807 | 0.00913 | 0.0103 | 0.0117 | 0.0132 | 0.0149 | 0.0167
in ethanol | 9.81e-05 | 0.000123 | 0.000151 | 0.00019 | 0.000233 | 0.000288 | 0.000351 | 0.000425 | 0.000512 | 0.000611
in isopropanol | 8.14e-05 | 0.000104 | 0.000133 | 0.00017 | 0.000217 | 0.000278 | 0.000348 | 0.000437 | 0.000541 | 0.000668
in water | 2.49e-06 | 2.93e-06 | 3.4e-06 | 3.95e-06 | 4.62e-06 | 5.32e-06 | 6.12e-06 | 7e-06 | 7.96e-06 | 9.03e-06
